Patent publication US10294248B2, “Beta-lactamase inhibitors” (VenatoRx Pharmaceuticals, Inc., priority 2013, dated 2019)
pIC50: −log10 of the molar value.

Key:
[1] = molecular target: T1, SHV-5 β-lactamase (Class A ESBL) (Klebsiella pneumoniae, UniProt P0A3M1); test: β-Lactamase inhibition, SHV-5; type: biochemical
T1 construct: made in house; host or cells: E. coli BL21(DE3)
Summary of the method: (§1)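 Native untagged enzymes expressed in E. coli BL21(DE3), purified by cation exchange and gel filtration. Inhibitor preincubated with enzyme 15 min at 37 °C; hydrolysis followed by absorbance: imipenem at 300 nm for KPC-2, cefotaxime at 260 nm for SHV-5. IC50 as concentration halving initial hydrolysis rate versus inhibitor-free wells.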

[2] = molecular target: T2, KPC-2 β-lactamase (Class A carbapenemase) (Klebsiella pneumoniae, UniProt Q9F663); test: β-Lactamase inhibition, KPC-2; type: biochemical; conditions: imipenem substrate, 300 nm; 15 min preincubation at 37° C., PBS pH 7.4
T2 construct: made in house; host or cells: E. coli BL21(DE3)
Summary of the method: as §1

[3] = molecular target: T3, VIM-2 metallo-β-lactamase (Class B) (Pseudomonas aeruginosa, UniProt Q9K2N0); test: β-Lactamase inhibition, VIM-2; type: biochemical; conditions: nitrocefin 100 μM, 486 nm; 15 min preincubation at 37° C., PBS pH 7.4
T3 construct: made in house; host or cells: E. coli BL21(DE3)
Summary of the method: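 Purified VIM-2 preincubated with inhibitor for 15 min at 37° C, then nitrocefin (100 μM final) added and absorbance at 486 nm followed for 10 min. Maximum hydrolysis rates compared with inhibitor-free controls; IC50 fitted from percent inhibition across inhibitor concentrations.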

[4] = molecular target: T4, p99 AmpC β-lactamase (Class C) (Enterobacter cloacae, UniProt P05364); test: β-Lactamase inhibition, p99 AmpC; type: biochemical
T4 construct: made in house; host or cells: E. coli BL21(DE3)

[5] = molecular target: T5, OXA-1 β-lactamase (Class D oxacillinase) (Escherichia coli, UniProt P13661); test: β-Lactamase inhibition, OXA-1; type: biochemical; conditions: nitrocefin 100 μM, 486 nm; 15 min preincubation at 37° C., PBS pH 7.4
T5 construct: made in house; host or cells: E. coli BL21(DE3)
Summary of the method: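 Untagged enzyme from E. coli BL21(DE3), purified by Capto S then Superdex 75; 15 min 37 °C preincubation with inhibitor; KPC-2 read with imipenem at 300 nm, SHV-5 with cefotaxime at 260 nm, OXA-1 with nitrocefin 100 μM final at 486 nm; 10 min kinetic read; IC50 vs uninhibited wells.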

[6] = tested on: E. coli ESBL4 expressing CTX-M-15; test: Broth microdilution MIC, E. coli ESBL4 CTX-M-15; type: cell-based; conditions: fixed 4 μg/mL ceftazidime; CAMHB, 16-20 hours at 37° C.
Summary of the method: (§2)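 Potentiation MICs in CAMHB, with test compound at 32–0.25 μg/mL final alongside a β-lactam held at a fixed 4 μg/mL final. Strains pre-grown 3–5 h and inoculated per CLSI broth microdilution, then incubated 16–20 h at 37° C. MIC read visually.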

[7] = tested on: E. cloacae 144200 expressing Class C P99 AmpC; test: Broth microdilution MIC, E. cloacae 144200 p99 AmpC; type: cell-based; conditions: fixed 4 μg/mL ceftazidime; CAMHB, 16-20 hours at 37° C.
Summary of the method: as §2

[8] = tested on: K. pneumoniae 156319 expressing KPC-3; test: Broth microdilution MIC, K. pneumoniae 156319 KPC-3; type: cell-based; conditions: fixed 4 μg/mL meropenem; CAMHB, 16-20 hours at 37° C.
Summary of the method: as §2

[9] = tested on: P. aeruginosa Ps296 expressing VIM-2; test: Broth microdilution MIC, P. aeruginosa Ps296 VIM-2; type: cell-based; conditions: fixed 4 μg/mL meropenem; CAMHB, 16-20 hours at 37° C.
Summary of the method: as §2

[10] = tested on: K. pneumoniae A-1797 expressing KPC-2 and VIM-4; test: Broth microdilution MIC, K. pneumoniae A-1797 KPC-2/VIM-4; type: cell-based; conditions: fixed 4 μg/mL meropenem; CAMHB, 16-20 hours at 37° C.
Summary of the method: as §2

[11] = tested on: S. aureus MSSA-7 producing penicillinase PC-1; test: Broth microdilution MIC, S. aureus MSSA-7 PC-1; type: cell-based; conditions: fixed 4 μg/mL piperacillin; CAMHB, 16-20 hours at 37° C.
Summary of the method: as §2

T4 sequence (P05364 21-381): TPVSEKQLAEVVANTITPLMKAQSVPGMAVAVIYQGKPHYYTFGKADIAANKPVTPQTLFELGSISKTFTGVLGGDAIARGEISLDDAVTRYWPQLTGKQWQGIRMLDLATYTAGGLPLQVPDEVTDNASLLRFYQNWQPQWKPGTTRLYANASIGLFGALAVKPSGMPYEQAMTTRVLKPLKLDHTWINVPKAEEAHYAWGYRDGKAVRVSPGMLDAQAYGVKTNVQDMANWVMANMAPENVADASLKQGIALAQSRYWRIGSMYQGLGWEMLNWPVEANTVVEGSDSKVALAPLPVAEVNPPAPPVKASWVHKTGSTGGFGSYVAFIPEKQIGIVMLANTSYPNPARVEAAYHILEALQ
T5 sequence (P13661 26-276): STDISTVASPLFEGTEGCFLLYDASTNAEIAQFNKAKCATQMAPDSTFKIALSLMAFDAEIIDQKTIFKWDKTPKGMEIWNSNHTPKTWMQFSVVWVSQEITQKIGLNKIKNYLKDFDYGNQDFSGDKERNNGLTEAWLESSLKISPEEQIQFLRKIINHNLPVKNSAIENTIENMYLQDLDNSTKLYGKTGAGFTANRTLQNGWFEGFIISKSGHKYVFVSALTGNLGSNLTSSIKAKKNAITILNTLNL
T1 sequence (P0A3M1 22-286): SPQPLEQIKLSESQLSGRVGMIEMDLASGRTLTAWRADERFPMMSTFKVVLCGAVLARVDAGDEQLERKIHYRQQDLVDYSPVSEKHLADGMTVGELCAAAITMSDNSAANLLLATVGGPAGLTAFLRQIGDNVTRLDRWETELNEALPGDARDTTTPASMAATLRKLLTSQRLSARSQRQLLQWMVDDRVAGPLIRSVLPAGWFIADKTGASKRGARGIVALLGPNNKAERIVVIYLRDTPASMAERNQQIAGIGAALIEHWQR
T2 sequence (Q9F663 25-293, looked up): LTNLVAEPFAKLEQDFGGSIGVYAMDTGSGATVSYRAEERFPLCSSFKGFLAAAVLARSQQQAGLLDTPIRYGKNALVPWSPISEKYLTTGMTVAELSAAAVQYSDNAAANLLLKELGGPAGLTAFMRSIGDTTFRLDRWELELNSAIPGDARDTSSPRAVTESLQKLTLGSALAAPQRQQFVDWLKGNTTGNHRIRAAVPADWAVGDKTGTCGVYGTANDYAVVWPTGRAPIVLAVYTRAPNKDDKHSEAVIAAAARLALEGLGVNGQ

SMILES | pIC50 [1] | pIC50 [2] | pIC50 [3] | pIC50 [4] | pIC50 [5] | MIC of example compound in presence of fixed β-lactam: Fixed CAZ, E. coli ESBL4 CTX-M-15 [6] | MIC of example compound in presence of fixed β-lactam: Fixed CAZ, E. cl. 144200 p99 AmpC [7] | MIC of example compound in presence of fixed β-lactam: Fixed Mero, K. P. 156319 KPC-3 [8] | MIC of example compound in presence of fixed β-lactam: Fixed Mero, P. aerug. Ps296 VIM-2 [9] | MIC of example compound in presence of fixed β-lactam: Fixed Mero, K. P. A-1797 KPC-2 VIM-4 [10] | MIC of example compound in presence of fixed β-lactam: Fixed Pip, S. aureus MSSA-7 PC-1 [11]
O=C(COC1CCNCC1)N[C@H]1Cc2cccc(C(=O)O)c2OB1O [Example 39, 2-Hydroxy-3-[2-(piperidin-4-yloxy)-acetylamino]-3,4-dihydro-2H-benzo[e][1,2]oxaborinine-8-carboxylic acid] | 6.00 to 7.00 | > 7.00 | 6.00 to 7.00 | > 7.00 | > 7.00 | C (the MIC in the presence of <4 μg/mL of a β-lactamase inhibitor) | C (the MIC in the presence of <4 μg/mL of a β-lactamase inhibitor) | C (the MIC in the presence of <4 μg/mL of a β-lactamase inhibitor) | C (the MIC in the presence of <4 μg/mL of a β-lactamase inhibitor) | B (the MIC in the presence of between 8 and 32 μg/mL of a β-lactamase inhibitor) | C (the MIC in the presence of <4 μg/mL of a β-lactamase inhibitor)
O=C(CNC1CCNCC1)N[C@H]1Cc2cccc(C(=O)O)c2OB1O [Example 40, 2-Hydroxy-3-[2-(piperidin-4-ylamino)-acetylamino]-3,4-dihydro-2H-benzo[e][1,2]oxaborinine-8-carboxylic acid] | > 7.00 | 6.00 to 7.00 | 6.00 to 7.00 | > 7.00 | > 7.00 | C (the MIC in the presence of <4 μg/mL of a β-lactamase inhibitor) | C (the MIC in the presence of <4 μg/mL of a β-lactamase inhibitor) | B (the MIC in the presence of between 8 and 32 μg/mL of a β-lactamase inhibitor) | C (the MIC in the presence of <4 μg/mL of a β-lactamase inhibitor) | B (the MIC in the presence of between 8 and 32 μg/mL of a β-lactamase inhibitor) | C (the MIC in the presence of <4 μg/mL of a β-lactamase inhibitor)
NCCN1CCC(CC(=O)N[C@H]2Cc3cccc(C(=O)O)c3OB2O)CC1 [Example 41, 3-{2-[1-(2-Amino-ethyl)-piperidin-4-yl]-acetylamino}-2-hydroxy-3,4-dihydro-2H-benzo[e][1,2]oxaborinine-8-carboxylic acid] | > 7.00 | > 7.00 | 6.00 to 7.00 | > 7.00 | > 7.00 | C (the MIC in the presence of <4 μg/mL of a β-lactamase inhibitor) | C (the MIC in the presence of <4 μg/mL of a β-lactamase inhibitor) | C (the MIC in the presence of <4 μg/mL of a β-lactamase inhibitor) | C (the MIC in the presence of <4 μg/mL of a β-lactamase inhibitor) | C (the MIC in the presence of <4 μg/mL of a β-lactamase inhibitor) | C (the MIC in the presence of <4 μg/mL of a β-lactamase inhibitor)
CN(CC(=O)N[C@H]1Cc2cccc(C(=O)O)c2OB1O)C1CCNCC1 [Example 43, 2-Hydroxy-3-[2-(methyl-piperidin-4-yl-amino)-acetylamino]-3,4-dihydro-2H-benzo[e][1,2]oxaborinine-8-carboxylic acid] | > 7.00 | > 7.00 | 6.00 to 7.00 | > 7.00 | > 7.00 | C (the MIC in the presence of <4 μg/mL of a β-lactamase inhibitor) | C (the MIC in the presence of <4 μg/mL of a β-lactamase inhibitor) | C (the MIC in the presence of <4 μg/mL of a β-lactamase inhibitor) | C (the MIC in the presence of <4 μg/mL of a β-lactamase inhibitor) | C (the MIC in the presence of <4 μg/mL of a β-lactamase inhibitor) | C (the MIC in the presence of <4 μg/mL of a β-lactamase inhibitor)
O=C(O)c1cccc2c1OB(O)[C@@H](NC(=O)C1CCNCC1)C2 [Example 44, 2-Hydroxy-3-[(piperidine-4-carbonyl)-amino]-3,4-dihydro-2H-benzo[e][1,2]oxaborinine-8-carboxylic acid] | > 7.00 | > 7.00 | 4.00 to 5.00 | > 7.00 | > 7.00 | C (the MIC in the presence of <4 μg/mL of a β-lactamase inhibitor) | C (the MIC in the presence of <4 μg/mL of a β-lactamase inhibitor) | C (the MIC in the presence of <4 μg/mL of a β-lactamase inhibitor) | A (an MIC of the fixed β-lactam antibiotic in the presence of >32 μg/mL of a β-lactamase inhibitor) | A (an MIC of the fixed β-lactam antibiotic in the presence of >32 μg/mL of a β-lactamase inhibitor) | C (the MIC in the presence of <4 μg/mL of a β-lactamase inhibitor)
CN1CCC(CC(=O)N[C@H]2Cc3cccc(C(=O)O)c3OB2O)CC1 [Example 45, 2-Hydroxy-3-[2-(1-methyl-piperidin-4-yl)-acetylamino]-3,4-dihydro-2H-benzo[e][1,2]oxaborinine-8-carboxylic acid] | > 7.00 | > 7.00 | 6.00 to 7.00 | > 7.00 | 6.00 to 7.00 | C (the MIC in the presence of <4 μg/mL of a β-lactamase inhibitor) | C (the MIC in the presence of <4 μg/mL of a β-lactamase inhibitor) | C (the MIC in the presence of <4 μg/mL of a β-lactamase inhibitor) | C (the MIC in the presence of <4 μg/mL of a β-lactamase inhibitor) | C (the MIC in the presence of <4 μg/mL of a β-lactamase inhibitor) | B (the MIC in the presence of between 8 and 32 μg/mL of a β-lactamase inhibitor)
